# Reference: ChEMBL document CHEMBL1148291, “Prediction of human volume of distribution values for neutral and basic drugs. 2. Extended data set and leave-class-out statistics” (J Med Chem, 2004)
# Experiments:
# [1] = Ionization constant (pKa); assay type: physicochemical
# clinical = details: human, in vivo
# Description: Observed volume of distribution
# in vitro = details: human, plasma
# Description: Unbound fraction (plasma)
# [2] = human, plasma
# Description: Unbound fraction (plasma)
Structure (SMILES),pKa [1],Vd (clinical) [L/kg],fraction unbound (in vitro),Fu [2]
"Cc1ccc(O)c(C(CCN(C(C)C)C(C)C)c2ccccc2)c1 (single isomer, unassigned) [TOLTERODINE]",9.8,,,
CC(C)(C)NC[C@H](O)COc1nsnc1N1CCOCC1 [TIMOLOL],8.8,3.5,,
OC(CNCC(O)C1CCc2cc(F)ccc2O1)C1CCc2cc(F)ccc2O1 (stereo not given) [NEBIVOLOL],8.22,11.2,0.02,
CNCC[C@@H](Oc1ccccc1C)c1ccccc1 [ATOMOXETINE],10.1,0.85,,
CC(C)NCC(O)COc1ccc(COCCOC(C)C)cc1 (stereo not given) [BISOPROLOL],9.57,3.31,0.7,
CNCCC=C1c2ccccc2CCc2ccccc21 [NORTRIPTYLINE],10.1,19.1,,
OCCN1CCN(CCCN2c3ccccc3Sc3ccc(Cl)cc32)CC1 [PERPHENAZINE],8.11,20,,0.07
Cc1ccccc1OCC(O)CNCCOc1ccc(C(N)=O)cc1 (stereo not given) [TOLAMOLOL],7.9,3.2,0.09,
CC(CN(C)C)CN1c2ccccc2CCc2ccccc21 (stereo not given) [TRIMIPRAMINE],9.24,31,0.05,
CCN(CC)CCCC(C)Nc1c2ccc(Cl)cc2nc2ccc(OC)cc12 (stereo not given) [QUINACRINE],7.73,124,,
CN(C)CCCN1c2ccccc2Sc2ccccc21 [PROMAZINE],9.28,7.5,0.11,
CCN(C)C(=O)Oc1cccc([C@H](C)N(C)C)c1 [RIVASTIGMINE],8.99,2.2,0.6,
CC(C)NCC(O)c1ccc(NS(C)(=O)=O)cc1 (stereo not given) [SOTALOL],9.76,0.9,1,
CC(C)NCC(O)COc1ccc(CCOCC2CC2)cc1 (stereo not given) [BETAXOLOL],9.21,6.08,,
CN1CCN2c3ncccc3Cc3ccccc3C2C1 (stereo not given) [MIRTAZAPINE],7.3,4.8,,
CC(C)(C)NCC(O)COc1cccc2c1C[C@H](O)[C@H](O)C2 (stereo not given in full) [NADOLOL],,1.94,,0.7
CC(CCc1ccccc1)NCC(O)c1ccc(O)c(C(N)=O)c1 (stereo not given) [LABETALOL],7.4,,,
